Test results taken from PubChem BioAssay AID248 (DTP/NCI, 2004).
Where “and” joins values, the source holds several entries; their conditions need not be identical. Identical values can stand only once. Inconclusive results and toxic doses are left out. No stated cut-off is given here; in the data, active means T/C of 150% or more; inactive means T/C below 125%.

Tested on: L1210 leukemia ip in BDF1 mice, survival T/C
Assay: NCI In Vivo Anticancer Drug Screen. Data for tumor model L1210 Leukemia (intraperitoneal) in B6D2F1 (BDF1) mice
Settings: endpoint: mean survival time, higher = longer survival
Outline: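 Value reflects the ratio of survival in compound-treated mice to survival in vehicle-treated controls, with both groups carrying the same transplanted tumor.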

[1] = dose: 100.0 mg/kg/injection, schedule: Q04DX003 (ip), vehicle: saline with Tween-80
[2] = dose: 200.0 mg/kg/injection, schedule: Q04DX003 (ip), vehicle: saline with Tween-80
[3] = dose: 100.0 mg/kg/injection, schedule: Q04DX002 (ip), vehicle: Klucel (hydroxypropylcellulose) (HPC)

Measured: T/C

CC1=CC(=O)C(C(C)C)C1 (stereo unspecified)
inactive: dose: 100.0 mg/kg/injection, schedule: Q01DX001 (ip), vehicle: other 98 % of control | dose: 200.0 mg/kg/injection, schedule: Q01DX001 (ip), vehicle: other 109 % of control | dose: 400.0 mg/kg/injection, schedule: Q01DX001 (ip), vehicle: other 95 % of control

O=c1oc2ccccc2c(O)c1Oc1ccccc1
inactive: dose: 100.0 mg/kg/injection, schedule: Q04DX003 (ip), vehicle: saline 98 % of control | dose: 200.0 mg/kg/injection, schedule: Q04DX003 (ip), vehicle: saline 91 % of control | dose: 400.0 mg/kg/injection, schedule: Q04DX003 (ip), vehicle: saline 87 % of control

COc1cc(CC(C)N)cc(OC)c1OC (stereo unspecified)
inactive: dose: 50.0 mg/kg/injection, schedule: Q01DX009 (ip), vehicle: saline 110 % of control | dose: 100.0 mg/kg/injection, schedule: Q01DX009 (ip), vehicle: saline 108 % of control | dose: 200.0 mg/kg/injection, schedule: Q01DX009 (ip), vehicle: saline 103 % of control

O=C(O)c1cccc2cccc(C(=O)c3cccs3)c12
inactive: [1] 91 % of control | [2] 98 % of control | dose: 400.0 mg/kg/injection, schedule: Q04DX003 (ip), vehicle: saline with Tween-80 91 % of control

O=[N+]([O-])c1ccc(C=Nc2cccc3ccccc23)s1
inactive: dose: 100.0 mg/kg/injection, schedule: Q04DX003 (ip), vehicle: Klucel (hydroxypropylcellulose) (HPC) 95 % of control | dose: 200.0 mg/kg/injection, schedule: Q04DX003 (ip), vehicle: Klucel (hydroxypropylcellulose) (HPC) 95 % of control | dose: 400.0 mg/kg/injection, schedule: Q04DX003 (ip), vehicle: Klucel (hydroxypropylcellulose) (HPC) 92 % of control

Cc1c2cc3c(c1O)C(=O)CC(O3)c1ccc(O)c(c1)-c1cccc(c1O)C(=O)OCC1OC(O2)C(O)C(O)C1O (stereo unspecified)
inactive: dose: 0.13 mg/kg/injection, schedule: Q01DX009 (ip), vehicle: Klucel (hydroxypropylcellulose) (HPC) 104 % of control | dose: 0.25 mg/kg/injection, schedule: Q01DX009 (ip), vehicle: Klucel (hydroxypropylcellulose) (HPC) 97 % of control | dose: 0.5 mg/kg/injection, schedule: Q01DX009 (ip), vehicle: Klucel (hydroxypropylcellulose) (HPC) 98 % of control | dose: 1.0 mg/kg/injection, schedule: Q01DX009 (ip), vehicle: Klucel (hydroxypropylcellulose) (HPC) 103 % of control

Cc1ccc(Nc2cc(=S)nc(N)[nH]2)cc1Cl
inactive: dose: 100.0 mg/kg/injection, schedule: Q01DX Z (ip), vehicle: methylcellulose (MC) 97 % of control | dose: 200.0 mg/kg/injection, schedule: Q01DX Z (ip), vehicle: methylcellulose (MC) 96 % of control

CC(=O)OC1CCC2(C)C(=CCC3C2CCC2(C)C3CC3C(c4ccccc4)=NN(c4ccccc4)C32C(=O)c2ccccc2)C1 (stereo unspecified)
inactive: dose: 25.0 mg/kg/injection, schedule: Q04DX002 (ip), vehicle: Klucel (hydroxypropylcellulose) (HPC) 104 % of control | dose: 50.0 mg/kg/injection, schedule: Q04DX002 (ip), vehicle: Klucel (hydroxypropylcellulose) (HPC) 93 % of control | [3] 111 % of control

CSC(C)(S(C)(=O)=O)S(C)(=O)=O
inactive: dose: 75.0 mg/kg/injection, schedule: Q01DX001 (ip), vehicle: saline with Tween-80 102 % of control | dose: 150.0 mg/kg/injection, schedule: Q01DX001 (ip), vehicle: saline with Tween-80 96 % of control | dose: 300.0 mg/kg/injection, schedule: Q01DX001 (ip), vehicle: saline with Tween-80 98 % of control

COc1c2c(c(OC)c3ccccc13)C(=O)c1ccccc1C2=O
inactive: dose: 50.0 mg/kg/injection, schedule: Q01DX005 (ip), vehicle: saline 94 % of control | dose: 100.0 mg/kg/injection, schedule: Q01DX005 (ip), vehicle: saline 91 % of control | dose: 200.0 mg/kg/injection, schedule: Q01DX005 (ip), vehicle: saline 91 % of control

O=C(COc1cc(Cl)c(Cl)cc1Cl)Nc1ccc(N=Nc2ccccc2)cc1
inactive: [3] 99 % of control | dose: 200.0 mg/kg/injection, schedule: Q04DX002 (ip), vehicle: Klucel (hydroxypropylcellulose) (HPC) 99 % of control | dose: 400.0 mg/kg/injection, schedule: Q04DX002 (ip), vehicle: Klucel (hydroxypropylcellulose) (HPC) 86 % of control

Cc1ccc2cccc([N+](=O)[O-])c2n1
inactive: dose: 12.5 mg/kg/injection, schedule: Q01DX009 (ip), vehicle: saline with Tween-80 93 % of control | dose: 25.0 mg/kg/injection, schedule: Q01DX009 (ip), vehicle: saline with Tween-80 93 % of control | dose: 25.0 mg/kg/injection, schedule: Q04DX003 (ip), vehicle: saline with Tween-80 101 % of control | dose: 50.0 mg/kg/injection, schedule: Q01DX009 (ip), vehicle: saline with Tween-80 103 % of control | dose: 50.0 mg/kg/injection, schedule: Q04DX003 (ip), vehicle: saline with Tween-80 95 % of control | [1] 105 % of control and 106 % of control | [2] 106 % of control

Nc1ccn(Cc2cccc3ccccc23)c(=O)n1
inactive: dose: 100.0 mg/kg/injection, schedule: Q04DX003 (ip), vehicle: gum acacia 93 % of control | dose: 200.0 mg/kg/injection, schedule: Q04DX003 (ip), vehicle: gum acacia 90 % of control | dose: 400.0 mg/kg/injection, schedule: Q04DX003 (ip), vehicle: gum acacia 90 % of control

C[N+]1(CC(=O)c2ccc(CCc3ccc(C(=O)C[N+]4(C)CCCCC4)cc3)cc2)CCCCC1
inactive: dose: 0.78 mg/kg/injection, schedule: Q01DX009 (ip), vehicle: saline 117 % of control | dose: 0.78 mg/kg/injection, schedule: Q04DX002 (ip), vehicle: saline 101 % of control | dose: 1.56 mg/kg/injection, schedule: Q01DX009 (ip), vehicle: saline 106 % of control | dose: 1.56 mg/kg/injection, schedule: Q04DX002 (ip), vehicle: saline 95 % of control | dose: 3.12 mg/kg/injection, schedule: Q01DX009 (ip), vehicle: saline 92 % of control | dose: 3.12 mg/kg/injection, schedule: Q04DX002 (ip), vehicle: saline 98 % of control and 105 % of control

O=C(c1ccccc1)C(C(NC1CCCCC1)c1ccccc1)N1CCCCC1 (stereo unspecified)
inactive: dose: 100.0 mg/kg/injection, schedule: Q01DX001 (ip), vehicle: Klucel (hydroxypropylcellulose) (HPC) 95 % of control | dose: 200.0 mg/kg/injection, schedule: Q01DX001 (ip), vehicle: Klucel (hydroxypropylcellulose) (HPC) 92 % of control | dose: 400.0 mg/kg/injection, schedule: Q01DX001 (ip), vehicle: Klucel (hydroxypropylcellulose) (HPC) 92 % of control

Cc1ccc(NC(=O)COc2ccc(Cl)cc2)cc1
inactive: dose: 100.0 mg/kg/injection, schedule: Q04DX002 (ip), vehicle: saline + alcohol 103 % of control | dose: 200.0 mg/kg/injection, schedule: Q04DX002 (ip), vehicle: saline + alcohol 100 % of control | dose: 400.0 mg/kg/injection, schedule: Q04DX002 (ip), vehicle: saline + alcohol 92 % of control

CCOC(=O)C(C#N)S(C)(=O)=O (stereo unspecified)
inactive: dose: 100.0 mg/kg/injection, schedule: Q01DX001 (ip), vehicle: saline 89 % of control | dose: 200.0 mg/kg/injection, schedule: Q01DX001 (ip), vehicle: saline 95 % of control

CC1(C)N=C(N)N=C(N)N1c1cccc(OCCCOc2ccc(N)cc2)c1
inactive: dose: 5.0 mg/kg/injection, schedule: Q01DX001 (ip), vehicle: saline 97 % of control | dose: 10.0 mg/kg/injection, schedule: Q01DX001 (ip), vehicle: saline 100 % of control | dose: 20.0 mg/kg/injection, schedule: Q01DX001 (ip), vehicle: saline 101 % of control | dose: 40.0 mg/kg/injection, schedule: Q01DX001 (ip), vehicle: saline 100 % of control

CNC1(c2ccccc2)CC1
inactive: dose: 75.0 mg/kg/injection, schedule: Q04DX002 (ip), vehicle: saline 100 % of control | dose: 150.0 mg/kg/injection, schedule: Q04DX002 (ip), vehicle: saline 87 % of control

O=C1OC(c2ccccc2)=C/C1=C\c1[nH]c(=S)[nH]c(=O)c1Cc1ccc(Cl)cc1
inactive: dose: 100.0 mg/kg/injection, schedule: Q01DX001 (ip), vehicle: saline with Tween-80 102 % of control | dose: 200.0 mg/kg/injection, schedule: Q01DX001 (ip), vehicle: saline with Tween-80 89 % of control | dose: 400.0 mg/kg/injection, schedule: Q01DX001 (ip), vehicle: saline with Tween-80 90 % of control
